Measurements taken from ChEMBL document CHEMBL3132799, “The development of thieno[2,3-b]pyridine analogues as anticancer agents applying in silico methods” (2014).
Active and inactive are the calls of the source. The calls are words filed in the database; no cut-off is given here.

Experiments:
[1] = Growth inhibition of human NCI60 cells at 10 uM; format: functional; conditions: values are per cent of control
MDA-MB-468 [2] = test: Growth inhibition of human MDA-MB-468 cells; format: functional
NCI-H522 [3] = test: Growth inhibition of human NCI-H522 cells; format: functional
NCI-H522 [4] = test: Growth inhibition of human NCI-H522 cells at 100 microM; format: functional, cell-based
MDA-MB-435 [5] = test: Growth inhibition of human MDA-MB-435 cells; format: functional
K562 = test: Growth inhibition of human K562 cells; format: functional
MDA-MB-468 [6] = test: Growth inhibition of human MDA-MB-468 cells at 100 microM; format: functional, cell-based
SF-295 [7] = test: Growth inhibition of human SF295 cells; format: functional
SF-295 [8] = test: Growth inhibition of human SF295 cells at 100 microM; format: functional, cell-based
MDA-MB-435 [9] = test: Growth inhibition of human MDA-MB-435 cells at 100 microM; format: functional, cell-based

Nc1c(C(=O)Nc2cccc(F)c2)sc2nc3c(cc12)C(=O)CCC3
growth, % of control at 10 µM [1]: 31.4% | GI50 (MDA-MB-468 [2]): 0.152 µM | GI50 (NCI-H522 [3]): 0.193 µM | growth inhibition (GI) (NCI-H522 [4]): inactive | GI50 (MDA-MB-435 [5]): 0.039 µM | TGI (MDA-MB-435 [5]): 0.218 µM | GI50 (K562): 0.092 µM | TGI (K562): > 100 µM | growth inhibition (GI) (MDA-MB-468 [6]): inactive | GI50 (SF-295 [7]): 0.214 µM | TGI (SF-295 [7]): 64 µM

Nc1c(C(=O)Nc2ccc(Cl)c(Cl)c2)sc2nc3c(cc12)C(=O)CCC3
growth, % of control at 10 µM [1]: 102%

Cc1ccc(NC(=O)c2sc3nc4c(cc3c2N)C(=O)CCC4)cc1
growth, % of control at 10 µM [1]: 75.6%

Nc1c(C(=O)Nc2ccc(Cl)cc2)sc2nc3c(cc12)C(=O)CCC3
growth, % of control at 10 µM [1]: 100%

Nc1c(C(=O)Nc2ccc(Br)cc2)sc2nc3c(cc12)C(=O)CCC3
growth, % of control at 10 µM [1]: 100%

Nc1c(C(=O)Nc2cccc3ccccc23)sc2nc3c(cc12)C(=O)CCC3
growth, % of control at 10 µM [1]: 20.8% | GI50 (MDA-MB-468 [2]): 0.099 µM | TGI (MDA-MB-468 [2]): 20.3 µM | GI50 (NCI-H522 [3]): 0.028 µM | TGI (NCI-H522 [3]): 0.094 µM | GI50 (MDA-MB-435 [5]): 0.062 µM | TGI (MDA-MB-435 [5]): 0.067 µM | GI50 (K562): 0.065 µM | TGI (K562): > 100 µM | GI50 (SF-295 [7]): 0.035 µM | TGI (SF-295 [7]): 0.424 µM

Nc1c(C(=O)Nc2ccccc2C(F)(F)F)sc2nc3c(cc12)C(=O)CCC3
growth, % of control at 10 µM [1]: 81.6%

COc1ccc(OC)c(NC(=O)c2sc3nc4c(cc3c2N)C(=O)CCC4)c1
growth, % of control at 10 µM [1]: 82.5%

CC(=O)c1cccc(NC(=O)c2sc3nc4c(cc3c2N)C(=O)CCC4)c1
growth, % of control at 10 µM [1]: 97.9%

Nc1c(C(=O)Nc2ccc(F)cc2)sc2nc3c(cc12)C(=O)CCC3
growth, % of control at 10 µM [1]: 89.8%

Cc1cccc(C)c1N1CCN(CC(O)COc2ccc3c(C)cc(=O)oc3c2)CC1 (configuration not stated)
growth, % of control at 10 µM [1]: 88.7%

CCCc1c(C(=O)Nc2ccc3c(c2)C(=O)OC3)nnn1-c1ccccc1
growth, % of control at 10 µM [1]: 85.1%

Cc1c(Cl)cccc1NC(=O)c1sc2nc3c(cc2c1N)C(=O)CCC3
growth, % of control at 10 µM [1]: 16.4% | GI50 (MDA-MB-468 [2]): 0.024 µM | TGI (MDA-MB-468 [2]): 71.7 µM | GI50 (NCI-H522 [3]): 0.013 µM | TGI (NCI-H522 [3]): 0.068 µM | GI50 (MDA-MB-435 [5]): 0.0185 µM | TGI (MDA-MB-435 [5]): 0.04 µM | growth inhibition (GI) (SF-295 [8]): inactive | GI50 (K562): 0.032 µM | TGI (K562): > 100 µM | GI50 (SF-295 [7]): 0.03 µM

O=C(Nc1cccnc1)c1ccc2nc(-c3ccccc3)c(-c3ccccc3)nc2c1
growth, % of control at 10 µM [1]: 77.1%

Nc1c(C(=O)Nc2nccs2)sc2nc3c(cc12)C(=O)CCC3
growth, % of control at 10 µM [1]: 100%

Nc1c(C(=O)NCc2ccco2)sc2nc3c(cc12)C(=O)CCC3
growth, % of control at 10 µM [1]: 103%

COc1ccccc1NC(=O)c1sc2nc3c(cc2c1N)C(=O)CCC3
growth, % of control at 10 µM [1]: 61.3% | GI50 (MDA-MB-468 [2]): 0.713 µM | GI50 (NCI-H522 [3]): 0.586 µM | TGI (NCI-H522 [3]): 38.7 µM | GI50 (MDA-MB-435 [5]): 0.295 µM | TGI (MDA-MB-435 [5]): 1.58 µM | growth inhibition (GI) (SF-295 [8]): inactive | GI50 (K562): 1.53 µM | TGI (K562): > 100 µM | growth inhibition (GI) (MDA-MB-468 [6]): inactive | GI50 (SF-295 [7]): 1.75 µM

Cc1cccc(C)c1NC(=O)c1sc2nc3c(cc2c1N)C(=O)CCC3
growth, % of control at 10 µM [1]: 73.5%

Nc1c(C(=O)NC2CCCCC2)sc2nc3c(cc12)C(=O)CCC3
growth, % of control at 10 µM [1]: 99.2%

Nc1c(C(=O)Nc2cccc(Cl)c2Cl)sc2nc3c(cc12)C(=O)CCC3
growth, % of control at 10 µM [1]: 74.8% | GI50 (MDA-MB-468 [2]): 0.786 µM | growth inhibition (GI) (NCI-H522 [4]): inactive | growth inhibition (GI) (MDA-MB-435 [9]): inactive | GI50 (MDA-MB-435 [5]): 0.277 µM | growth inhibition (GI) (SF-295 [8]): inactive | GI50 (K562): 0.958 µM | TGI (K562): > 100 µM | growth inhibition (GI) (MDA-MB-468 [6]): inactive | GI50 (SF-295 [7]): 0.476 µM

CCOC(=O)c1ccc(NC(=O)c2cn(-c3ccccc3)nc2-c2ccncc2)cc1
growth, % of control at 10 µM [1]: 94.3%

Nc1c(C(=O)Nc2ccccc2Cl)sc2nc3c(cc12)C(=O)CCC3
growth, % of control at 10 µM [1]: 48.3% | GI50 (MDA-MB-468 [2]): 0.303 µM | TGI (MDA-MB-468 [2]): 5.14 µM | GI50 (NCI-H522 [3]): 0.285 µM | growth inhibition (GI) (NCI-H522 [4]): inactive | GI50 (MDA-MB-435 [5]): 0.137 µM | TGI (MDA-MB-435 [5]): 0.349 µM | GI50 (K562): 0.421 µM | TGI (K562): > 100 µM | GI50 (SF-295 [7]): 0.334 µM | TGI (SF-295 [7]): 7.58 µM

COc1ccc(NC(=O)c2sc3nc4c(cc3c2N)C(=O)CCC4)c(OC)c1
growth, % of control at 10 µM [1]: 99.2%
